Assay [1] has as its target T1, xTMEM16A (Xenopus laevis, UniProt B5SVV6).
T1 sequence (B5SVV6 1-979): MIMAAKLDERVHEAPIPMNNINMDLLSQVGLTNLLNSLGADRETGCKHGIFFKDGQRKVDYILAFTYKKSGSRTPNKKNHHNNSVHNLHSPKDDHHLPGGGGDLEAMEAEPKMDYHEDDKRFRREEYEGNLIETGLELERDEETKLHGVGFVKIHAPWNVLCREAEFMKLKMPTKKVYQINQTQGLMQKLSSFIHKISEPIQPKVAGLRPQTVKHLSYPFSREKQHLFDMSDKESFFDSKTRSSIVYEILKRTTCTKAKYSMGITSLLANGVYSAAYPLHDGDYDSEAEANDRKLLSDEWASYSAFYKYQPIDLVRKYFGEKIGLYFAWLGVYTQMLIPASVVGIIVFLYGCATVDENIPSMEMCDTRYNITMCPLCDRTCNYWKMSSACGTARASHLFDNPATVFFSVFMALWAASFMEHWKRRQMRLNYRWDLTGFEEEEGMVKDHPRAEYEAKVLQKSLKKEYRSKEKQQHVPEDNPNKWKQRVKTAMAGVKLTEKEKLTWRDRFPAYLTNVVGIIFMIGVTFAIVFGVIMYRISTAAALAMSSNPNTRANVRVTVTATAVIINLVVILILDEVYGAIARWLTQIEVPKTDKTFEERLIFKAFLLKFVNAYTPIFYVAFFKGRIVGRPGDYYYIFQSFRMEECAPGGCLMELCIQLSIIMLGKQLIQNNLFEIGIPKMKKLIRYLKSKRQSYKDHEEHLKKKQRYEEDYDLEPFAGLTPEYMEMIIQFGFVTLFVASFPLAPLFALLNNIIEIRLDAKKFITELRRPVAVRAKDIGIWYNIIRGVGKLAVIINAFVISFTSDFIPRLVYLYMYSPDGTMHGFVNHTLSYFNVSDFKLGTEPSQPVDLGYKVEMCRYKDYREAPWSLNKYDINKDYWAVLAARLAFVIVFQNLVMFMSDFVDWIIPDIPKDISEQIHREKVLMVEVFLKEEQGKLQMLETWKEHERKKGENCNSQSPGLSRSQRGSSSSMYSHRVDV
The experiment in a line: TEVC in axolotl oocytes, current evoked by uncaging IP3. Format: cell-based.

In assay [2] the target is T1, xTMEM16A. The description is as above. It is filed as cell-based. Conditions: 7.5 µM; otherwise same; printed as almost 50%.

For the compound `COc1ccccc1C=NNC(=O)COc1ccc(Cl)cc1C` [Ani9, 2-(4-chloro-2-methylphenoxy)-N-[(2-methoxyphenyl)methylideneamino]-acetamide], the inhibition at 1 µM in assay [1] (read-out: % inhibition at 1 μM) was approximately 80%.
In the case of `CC(C)(C)C1CCc2c(sc(NC(=O)c3ccco3)c2C(=O)O)C1` (stereo not shown) [CaCCinh-A01, 6-(1,1-dimethylethyl)-2-[(2-furanylcarbonyl)amino]-4,5,6,7-tetrahydrobenzo[b]thiophene-3-carboxylic acid], the “% inhibition” value in assay [2] is “whereas T16Ainh-A01 and CaCCinh-A01 were much less effective”.
With `O=S(=O)(O)c1cc(N=C=S)ccc1/C=C/c1ccc(N=C=S)cc1S(=O)(=O)O` [DIDS], the inhibition at 7.5 µM in assay [1] (read-out: % inhibition at 7.5 μM) is approximately 50%.
On to `COc1cc(Nc2ccc([N+](=O)[O-])cc2C(=O)O)cc2ccccc12` [MONNA, N-((4-methoxy)-2-naphthyl)-5-nitroanthranilic acid], for which, in assay [1] (read-out: % inhibition at 10 μM), the inhibition at 10 µM was 72 ± 3%.

The inhibition is how much of the control response was suppressed.

These data come from article PMC6122928 (The Journal of General Physiology, 2018).
